These results are taken from patent US4570006A, “Amidine compound, process for producing same and anti-complement agent comprising same” (Torii & Co. Ltd., priority 1981, dated 1986).

In one test the target is Plasmin (Homo sapiens, UniProt P00747). The test can be described thus: Anti-plasmin activity (inhibition of TAME hydrolysis). The format is biochemical. The following applies: read-out: ID50, plasmin. The procedure: (§1) The anti-trypsin, anti-plasmin, anti-kallikrein and anti-thrombin activities were determined according to the method of Muramatsu et al. [M. Muramatsu, T. Onishi, S. Makino, Y. Hayashi and S. Fujii, J. of Biochem., 58, 214 (1965)]. The data summarized in Table 1 are expressed in terms of molar concentration (ID50) of the test compound which inhibits 50% of the activity of each enzyme to hydrolyze TAME (tosylarginine methyl ester). The compound No. corresponds to the compound number shown in Examples.
Sequence of Plasmin (P00747 581-810 limits assumed, species assumed): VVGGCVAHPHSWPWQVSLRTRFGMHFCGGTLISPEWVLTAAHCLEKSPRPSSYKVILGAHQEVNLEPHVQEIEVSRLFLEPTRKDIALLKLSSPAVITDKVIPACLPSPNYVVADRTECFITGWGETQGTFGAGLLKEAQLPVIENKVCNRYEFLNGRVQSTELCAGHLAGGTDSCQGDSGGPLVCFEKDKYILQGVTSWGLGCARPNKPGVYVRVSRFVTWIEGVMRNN
Sequence of Plasmin (P00747 97-580 limits assumed, species assumed): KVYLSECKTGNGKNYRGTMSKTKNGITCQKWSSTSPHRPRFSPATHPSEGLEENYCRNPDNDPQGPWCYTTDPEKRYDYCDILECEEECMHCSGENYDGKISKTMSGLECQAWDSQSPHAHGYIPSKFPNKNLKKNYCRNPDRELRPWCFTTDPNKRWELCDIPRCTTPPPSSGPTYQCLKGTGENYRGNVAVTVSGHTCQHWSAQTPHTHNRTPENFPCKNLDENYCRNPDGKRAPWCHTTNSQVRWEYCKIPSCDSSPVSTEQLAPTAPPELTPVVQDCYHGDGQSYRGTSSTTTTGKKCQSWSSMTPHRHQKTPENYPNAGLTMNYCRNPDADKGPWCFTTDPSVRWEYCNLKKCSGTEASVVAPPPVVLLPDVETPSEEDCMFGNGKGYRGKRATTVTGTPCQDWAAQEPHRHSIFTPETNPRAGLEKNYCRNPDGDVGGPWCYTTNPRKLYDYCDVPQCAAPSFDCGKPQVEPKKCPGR

The target of a further test is T1, Cls (Homo sapiens, UniProt P09871).
T1 sequence (P09871 438-688 limits assumed): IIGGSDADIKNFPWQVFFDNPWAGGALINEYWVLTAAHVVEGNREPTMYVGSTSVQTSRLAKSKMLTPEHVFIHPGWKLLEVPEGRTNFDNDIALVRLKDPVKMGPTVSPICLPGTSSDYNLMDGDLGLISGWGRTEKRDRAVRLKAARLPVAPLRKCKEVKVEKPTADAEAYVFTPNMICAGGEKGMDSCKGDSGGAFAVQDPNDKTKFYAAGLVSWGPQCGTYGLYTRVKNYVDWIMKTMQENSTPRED
T1 sequence (P09871 16-437 limits assumed): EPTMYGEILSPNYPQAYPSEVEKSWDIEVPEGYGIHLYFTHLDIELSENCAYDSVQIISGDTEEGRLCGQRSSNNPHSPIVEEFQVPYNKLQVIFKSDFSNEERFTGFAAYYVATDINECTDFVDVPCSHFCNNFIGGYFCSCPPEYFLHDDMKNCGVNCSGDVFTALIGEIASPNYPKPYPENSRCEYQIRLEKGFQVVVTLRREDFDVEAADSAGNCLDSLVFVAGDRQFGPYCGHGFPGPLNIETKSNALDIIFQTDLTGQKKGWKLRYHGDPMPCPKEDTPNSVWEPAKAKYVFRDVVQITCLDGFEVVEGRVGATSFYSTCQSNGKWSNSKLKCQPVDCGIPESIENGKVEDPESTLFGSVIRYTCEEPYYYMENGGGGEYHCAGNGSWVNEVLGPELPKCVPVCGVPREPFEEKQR
The test can be described thus: Anti-Cl esterase activity, Cls (ATEE hydrolysis). The format is biochemical. The following applies: hydrolysis of ATEE; read-out: Anti-Cl activity, Cls (50% inhibition). On the procedure: The anti-Cl esterase (Clr, Cls) activity was determined according to the method of Okamura et al. [K. Okamura, M. Muramatsu and B. Fujii, Biochem. Biophys. […] The figures in Table 2 have the following meanings:
Cls: Molar concentration of the test compound which inhibits 50% of the ability of Cls to hydrolyse ATEE (acetyltyrosin ethyl ester).

For a further test, the target named is T2, Trypsin (Bos taurus, UniProt P00760).
T2 sequence (P00760 24-246): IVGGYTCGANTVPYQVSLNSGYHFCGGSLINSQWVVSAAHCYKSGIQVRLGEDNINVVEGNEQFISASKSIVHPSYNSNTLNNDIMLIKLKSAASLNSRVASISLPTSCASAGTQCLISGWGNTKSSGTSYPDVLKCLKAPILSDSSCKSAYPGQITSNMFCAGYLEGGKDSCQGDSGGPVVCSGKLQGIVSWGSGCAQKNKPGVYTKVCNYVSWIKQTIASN
Description: Anti-trypsin activity (inhibition of TAME hydrolysis). The test is classed as biochemical. The following applies: read-out: ID50, trypsin. The procedure:
as §1

A further test concerns Kallikrein. Description: Anti-kallikrein activity (inhibition of TAME hydrolysis). The format is biochemical. The following applies: read-out: ID50, kallikrein. On the procedure: as §1
The target of a further test is T3, Clr (Homo sapiens, UniProt P00736).
T3 sequence (P00736 464-705 limits assumed): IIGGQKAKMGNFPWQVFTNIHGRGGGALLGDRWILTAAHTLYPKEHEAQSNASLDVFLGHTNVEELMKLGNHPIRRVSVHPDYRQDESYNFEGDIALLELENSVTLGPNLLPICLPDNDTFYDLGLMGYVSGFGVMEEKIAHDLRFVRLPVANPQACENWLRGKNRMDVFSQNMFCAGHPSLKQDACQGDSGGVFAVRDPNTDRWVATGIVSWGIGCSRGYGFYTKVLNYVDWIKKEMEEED
T3 sequence (P00736 18-463 limits assumed): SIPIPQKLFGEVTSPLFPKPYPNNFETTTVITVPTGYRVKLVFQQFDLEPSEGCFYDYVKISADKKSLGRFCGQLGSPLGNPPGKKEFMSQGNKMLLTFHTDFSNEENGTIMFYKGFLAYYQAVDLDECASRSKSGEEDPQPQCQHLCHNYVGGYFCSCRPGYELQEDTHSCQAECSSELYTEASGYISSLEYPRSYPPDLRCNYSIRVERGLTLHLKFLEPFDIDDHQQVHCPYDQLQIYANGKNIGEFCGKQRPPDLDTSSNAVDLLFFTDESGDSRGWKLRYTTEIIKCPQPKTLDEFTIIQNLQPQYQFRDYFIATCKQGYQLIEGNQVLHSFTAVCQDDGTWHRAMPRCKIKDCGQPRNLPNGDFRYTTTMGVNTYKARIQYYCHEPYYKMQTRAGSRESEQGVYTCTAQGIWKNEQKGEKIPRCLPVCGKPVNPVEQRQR
The test can be described thus: Anti-Cl esterase activity, Clr (AAME hydrolysis). The format is biochemical. The conditions noted are these: hydrolysis of AAME; read-out: Anti-Cl activity, Clr (ID50). On the procedure: The anti-Cl esterase ([…]) activity was determined according to the method of Okamura et al. [K. Okamura, M. Muramatsu and B. Fujii, Biochem. Biophys.

For another test, the system named is complement. The test can be described thus: Inhibition of complement mediated hemolysis. The format is cell-based. On the procedure:
The complement mediated hemolysis is widely used as a means to determine the titration of complement. The principle of this method is based on the fact that hemolysis if caused by the activation of complement, when the latter is added to a complex (immune complex) of erythrocytes and the antibody thereof. The degree of hemolysis varies in proportion to the amount of complement added. Therefore, when a known amount of complement admixed with a Cl esterase inhibitor is used, the hemolysis must be suppressed in proportion to the inhibitory activity.
The anti-Cl esterase (Clr, Cls) activity was determined according to the method of Okamura et al. [K. Okamura, M. Muramatsu and B. Fujii, Biochem. Biophys. […] The figures in Table 2 have the following meanings: […]

The next test addresses Thrombin (Homo sapiens, UniProt P00734). Description: biochemical. The conditions noted are these: TAME hydrolysis; read-out: ID50, thrombin.

As for `COC(=O)c1cc(C(=N)N)ccc1OC(=O)c1ccc(C=O)cc1` [Compound 51], the IC50 was 0.3 µM at Plasmin; 3 µM at Cls; 0.2 µM at Trypsin; above 10 µM with Kallikrein; above 10 µM at Clr; 0.9 µM on Thrombin. Besides, the “Inhibition of complement mediated hemolysis (%)” value (from here on “Inhibition … (%)”) was 99.1% in the test with complement (compound at 1 × 10^-4), 90.9% in the test with complement (compound at 1 × 10^-5), 15.0% in the test on complement (compound at 1 × 10^-6) and 0% in the test on complement (compound at 1 × 10^-7).

Regarding `N=C(N)c1ccc(OC(=O)c2ccccc2)c([N+](=O)[O-])c1` [Compound 27, 4-amidino-2-nitrophenyl benzoate], the IC50 at Plasmin worked out at 0.4 µM; at Cls, 0.2 µM; on Trypsin, 0.3 µM; in the test on Kallikrein, 4 µM; at Clr it was 0.5 µM; at Thrombin it was 0.1 µM. Also, the “Inhibition … (%)” value in the test with complement (compound at 1 × 10^-4) turned out to be 100%; in the test with complement (compound at 1 × 10^-5), 100%; with complement (compound at 1 × 10^-6), 95.5%; with complement (compound at 1 × 10^-7), 26.2%.

With `COC(=O)c1ccc(C(=O)Oc2ccc(C(=N)N)cc2C(=O)c2ccccc2)cc1` [Compound 50], the IC50 on Plasmin is 0.5 µM; on Cls, above 10 µM; on Trypsin, 4 µM; in the test on Kallikrein it was above 10 µM; on Clr, 9 µM; on Thrombin, 0.2 µM. The “Inhibition … (%)” value in the test on complement (compound at 1 × 10^-4) worked out at 98.8%; with complement (compound at 1 × 10^-5), 75.4%; with complement (compound at 1 × 10^-6) it was 6.9%; in the test with complement (compound at 1 × 10^-7), 0%.

In the case of `N=C(N)c1ccc(OC(=O)C2CC2)c([N+](=O)[O-])c1` [Compound 7, 4-amidino-2-nitrophenyl cyclopropanecarboxylate], the IC50 at Plasmin is 4 µM; at Trypsin it was above 10 µM; in the test with Kallikrein, above 10 µM; on Clr, above 10 µM; on Thrombin, 0.5 µM. For the same compound, the “Inhibition … (%)” value stood at 99.0% in the test on complement (compound at 1 × 10^-4), 78.2% in the test with complement (compound at 1 × 10^-5), 10.2% with complement (compound at 1 × 10^-6) and 1.7% in the test on complement (compound at 1 × 10^-7).

Consider `CC(=O)Oc1ccc(C(=N)N)cc1[N+](=O)[O-]` [Compound 2, 4-amidino-2-nitrophenyl acetate], for which the IC50 on Plasmin, at Trypsin, in the test with Kallikrein and on Thrombin was above 10 µM in each case. For the same compound, the “Inhibition … (%)” value with complement (compound at 1 × 10^-4) is 97.3%; with complement (compound at 1 × 10^-5), 30.1%; in the test with complement (compound at 1 × 10^-6), 3.9%; with complement (compound at 1 × 10^-7), 2.1%.

For the compound `COc1cc(C(=N)N)ccc1OC(=O)c1ccccc1` [Compound 23, 4-amidino-2-methoxyphenyl benzoate], the IC50 is 20 µM on Plasmin; 5 µM on Cls; 10 µM on Trypsin; 60 µM in the test on Kallikrein; 7 µM on Clr; 0.2 µM on Thrombin.

For `N=C(N)c1ccc(OC(=O)CCN)c(C(=O)c2ccccc2)c1` [Compound 11, 4-amidino-2-benzoylphenyl 3-aminopropionate], the IC50 on Plasmin, at Trypsin, in the test with Kallikrein, at Clr and on Thrombin was above 10 µM throughout. Also, the “Inhibition … (%)” value in the test on complement (compound at 1 × 10^-4) is on record as 17.4%; in the test on complement (compound at 1 × 10^-5), 2.5%; in the test on complement (compound at 1 × 10^-6), 2.5%; in the test on complement (compound at 1 × 10^-7), 3.5%.

`COC(=O)c1cc(C(=N)N)ccc1OC(=O)c1ccccc1` [Compound 25, 4-amidino-2-methoxycarbonylphenyl benzoate]: the IC50 was 0.6 µM at Plasmin; 0.2 µM at Cls; 0.3 µM on Trypsin; above 10 µM in the test on Kallikrein; 4 µM at Clr. The “Inhibition … (%)” value with complement (compound at 1 × 10^-4) amounted to 100.0%; in the test on complement (compound at 1 × 10^-5), 93.1%; in the test on complement (compound at 1 × 10^-6), 38.6%; with complement (compound at 1 × 10^-7), 11.6%.

`N=C(N)c1ccc(OC(=O)CCNC(=O)OCc2ccccc2)c(C(=O)c2ccccc2)c1` [Compound 10, 4-amidino-2-benzoylphenyl 3-benzyloxycarbonylaminopropionate]: the IC50 is above 10 µM on Plasmin; above 10 µM on Trypsin; above 10 µM in the test with Kallikrein; above 10 µM at Clr; 2 µM on Thrombin. Besides, the “Inhibition … (%)” value with complement (compound at 1 × 10^-4) is given as 95.9%; with complement (compound at 1 × 10^-5) it was 80.3%; in the test on complement (compound at 1 × 10^-6), 17.0%; in the test with complement (compound at 1 × 10^-7), 2.3%.

On to `CSc1ccc(C(=O)Oc2ccc(C(=N)N)cc2C(=O)c2ccccc2)cc1` [Compound 49], for which the IC50 was 0.2 µM at Plasmin; 0.03 µM at Trypsin; 0.4 µM in the test with Kallikrein; 1 µM on Clr; below 0.01 µM on Thrombin. Besides, the “Inhibition … (%)” value is reported as 83.8% in the test on complement (compound at 1 × 10^-4), 94.6% in the test with complement (compound at 1 × 10^-5), 97.5% with complement (compound at 1 × 10^-6) and 75.1% in the test on complement (compound at 1 × 10^-7).

On to `CC(=O)Oc1ccc(C(=N)N)cc1C(=O)c1ccccc1` [Compound 1, 4-amidino-2-benzoylphenyl acetate], for which the IC50 on Plasmin, on Trypsin, with Kallikrein, on Clr and at Thrombin was above 10 µM in each case. Moreover, the “Inhibition … (%)” value in the test with complement (compound at 1 × 10^-4) stood at 95.9%; with complement (compound at 1 × 10^-5), 37.3%; in the test with complement (compound at 1 × 10^-6), 16.0%; in the test on complement (compound at 1 × 10^-7), 0%.
